Our source for the IC50 values is patent US9957265B2, “N-(2-cyano heterocyclyl) pyrazolo pyridones as janus kinase inhibitors” (Merck Sharp & Dohme Corp., priority 2013, dated 2018).

SMILES strings stand for the structures. Like-named read-outs stand apart in the source and are kept apart here.

One experiment deals with JAK2 (Homo sapiens (Human), UniProt O60674). Briefly: Jak Biochemical HTRF Assay (JAK2).
The target in the next experiment is JAK1 (Homo sapiens (Human), UniProt P23458). Briefly: Jak Biochemical HTRF Assay (JAK1). As to conditions: recombinant GST-tagged catalytic domain, [ATP] 31.8 μM, unit not given (compound concentrations tested given in nM). The source says:
Jak Biochemical HTRF Assay Protocol
Subsequent reagent additions employed an Agilent Bravo.
A general note: Time-resolved FRET reads energy transfer from a long-lived donor to a nearby acceptor.

Setting [1] is: JAK2 IC50, recombinant GST-tagged catalytic domain, [ATP] 8.5 μM, unit not given (compound concentrations tested given in nM).
Setting [2] is: read-out: JAK2 IC50, recombinant GST-tagged catalytic domain, [ATP] 8.5 μM, unit not given (compound concentrations tested given in nM).

JAK2, sequence (O60674 849-1124): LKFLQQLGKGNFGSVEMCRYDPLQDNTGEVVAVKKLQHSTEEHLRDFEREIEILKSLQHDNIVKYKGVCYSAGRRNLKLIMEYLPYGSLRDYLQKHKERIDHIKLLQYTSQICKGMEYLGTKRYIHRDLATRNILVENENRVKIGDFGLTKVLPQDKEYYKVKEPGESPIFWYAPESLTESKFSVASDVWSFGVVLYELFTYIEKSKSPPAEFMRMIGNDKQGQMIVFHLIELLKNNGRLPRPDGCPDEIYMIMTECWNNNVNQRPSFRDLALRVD
JAK1, sequence (P23458 875-1153): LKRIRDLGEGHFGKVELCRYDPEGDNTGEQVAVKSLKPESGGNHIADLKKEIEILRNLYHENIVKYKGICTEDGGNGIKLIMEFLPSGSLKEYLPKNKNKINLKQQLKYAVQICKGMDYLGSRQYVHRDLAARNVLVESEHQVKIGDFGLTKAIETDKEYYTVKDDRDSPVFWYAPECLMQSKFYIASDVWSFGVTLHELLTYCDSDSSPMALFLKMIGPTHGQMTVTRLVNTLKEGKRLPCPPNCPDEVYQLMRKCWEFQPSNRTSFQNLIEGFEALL

Take `CC(O)(c1ccc(Nc2nn([C@H]3COCC[C@@H]3C#N)c3cc[nH]c(=O)c23)cc1)C(F)(F)F` (single isomer, unassigned) [Example 2-4, (3R,4S)-3-[4-oxo-3-({4-[(1R or 1S)-2,2,2-trifluoro-1-hydroxy-1-methylethyl]phenyl}amino)-4,5-dihydro-1H-pyrazolo[4,3-c]pyridin-1-yl]tetrahydro-2H-pyran-4-carbonitrile]: the IC50 on JAK2 (setting [1]) was 0.27 nM; at JAK1, 0.05 nM.
In the case of `N#C[C@H]1CCOC[C@@H]1n1nc(Nc2ccc(C(N3CCNCC3)C(F)(F)F)cc2)c2c(=O)[nH]ccc21` (single isomer, unassigned) [Example 1-39, (3R,4S)-3-[4-oxo-3-({4-[(1S or 1R)-2,2,2-trifluoro-1-piperazin-1-ylethyl]phenyl}amino)-4,5-dihydro-1H-pyrazolo[4,5-c]pyridin-1-yl]tetrahydro-2H-pyran-4-carbonitrile], the IC50 was found to be 0.17 nM at JAK2 (setting [1]) and 0.13 nM at JAK1.
Take `CS(=O)(=O)c1cc(Nc2nn(C3COCC[C@@H]3C#N)c3cc[nH]c(=O)c23)ccc1Cl` (stereo partly drawn) [Example 3-1, (3R,4S)-3-(3-((4-chloro-3-(methylsulfonyl)phenyl)amino)-4-oxo-4,5-dihydro-1H-pyrazolo[4,3-t]pyridin-1-yl)tetrahydro-2H-pyran-4-carbonitrile]: the IC50 stood at 7.44 nM at JAK2 (setting [2]) and 1.64 nM on JAK1.
Take `N#C[C@H]1CCOC[C@@H]1n1nc(Nc2ccc(C(NC3CCC3)C(F)(F)F)cc2)c2c(=O)[nH]ccc21` (single isomer, unassigned) [Example 1-93, (3R,4S)-3-[3-({4-[(1R or 1S)-1-(cyclobutylamino)-2,2,2-trifluoroethyl]phenyl}amino)-4-oxo-4,5-dihydro-1H-pyrazolo[4,3-c]pyridin-1-yl]tetrahydro-2H-pyran-4-carbonitrile]: the results for the IC50 at JAK2 (setting [1]) and on JAK1 were 0.11 nM and 0.09 nM, respectively.
For `CC1CCN1S(=O)(=O)c1ccc(Nc2nn([C@H]3COCC[C@@H]3C#N)c3cc[nH]c(=O)c23)cc1` (single isomer, unassigned) [Example 1-77, (3R,4S)-3-{3-[(4-{[(2R or 2S)-2-methylazetidin-1-yl]sulfonyl}phenyl)amino]-4-oxo-4,5-dihydro-1H-pyrazolo[4,3-c]pyridin-1-yl}tetrahydro-2H-pyran-4-carbonitrile] the same measures were 0.17 nM and 0.05 nM.
Turning to `COc1cc(Nc2nn([C@H]3COCC[C@@H]3C#N)c3cc[nH]c(=O)c23)ccc1F` [Example 1-17, (3R,4S)-3-{3-[(4-fluoro-3-methoxyphenyl)amino]-4-oxo-4,5-dihydro-1H-pyrazolo[4,3-c]pyridin-1-yl}tetrahydro-2H-pyran-4-carbonitrile], the IC50 on JAK2 (setting [2]) was found to be 2.52 nM; at JAK1, 0.09 nM.
Consider `C[S+]([O-])c1cc(Nc2nn([C@H]3COCC[C@@H]3C#N)c3cc[nH]c(=O)c23)ccc1F` (single isomer, unassigned) [Example 3-2, (3R,4S)-3-(3-((4-fluoro-3-((S or R)-methylsulfinyl)phenyl)amino)-4-oxo-4,5-dihydro-1H-pyrazolo[4,3-c]pyridin-1-yl)tetrahydro-2H-pyran-4-carbonitrile], for which the values for the IC50 on JAK2 (setting [1]) and on JAK1 were 13.7 nM and 0.89 nM, respectively.
Turning to `CC(c1ccc(Nc2nn([C@H]3COCC[C@@H]3C#N)c3cc[nH]c(=O)c23)cc1)n1nccn1` (single isomer, unassigned) [Example 1-45, (3R,4S)-3-[4-oxo-3-({4-[(1R or 1S)-1-(2H-1,2,3-triazol-2-yl)ethyl]phenyl}amino)-4,5-dihydro-1H-pyrazolo[4,3-c]pyridin-1-yl]tetrahydro-2H-pyran-4-carbonitrile], the IC50 on JAK2 (setting [1]) is 0.21 nM; on JAK1, 0.14 nM.
On to `CC(C)(C)S(=O)(=O)c1ccc(Nc2nn([C@H]3COCCC[C@@H]3C#N)c3cc[nH]c(=O)c23)cc1` (single isomer, unassigned) [Example 1-22, (3R,4S or 3S,4R)-3-(3-{[4-(tert-butylsulfonyl)phenyl]amino}-4-oxo-4,5-dihydro-1H-pyrazolo[4,3-c]pyridin-1-yl)oxepane-4-carbonitrile], for which the IC50 on JAK2 (setting [1]) was determined as 21.2 nM; on JAK1, 17.3 nM.
Turning to `CCC(C)(C)S(=O)(=O)c1ccc(Nc2nn([C@H]3COCC[C@@H]3C#N)c3cc[nH]c(=O)c23)cc1` [Example 1-65, (3R,4S)-3-[3-({4-[(1,1-dimethylpropyl)sulfonyl]phenyl}amino)-4-oxo-4,5-dihydro-1H-pyrazolo[4,3-c]pyridin-1-yl]tetrahydro-2H-pyran-4-carbonitrile], the IC50 was found to be 0.26 nM at JAK2 (setting [2]) and 0.09 nM at JAK1.
